These results are taken from patent US8703424B2, “Predicting human developmental toxicity of pharmaceuticals using human stem-like cells and metabolomics” (Stemina Biomarker Discovery, Inc., priority 2010, dated 2014).

Read-outs that look alike come from different tables or passages of the source.

Series [1] concerns WA09 human embryonic stem (hES) cells. Briefly: PLS-DA prediction of teratogenicity from secretome of treated hES cells (Example 9). The conditions noted are these: DevTox pharmaceutical.
Description: (§5) These included 11 known teratogens and 11 known non-teratogens. The current model is based on the mean fold change (treatment versus its associated intra-experimental control) of 15 metabolites common among the secretome of hES cells treated with pharmaceutical agents and unknown chemical compounds.
The test system of series [2] is WA09 hESCs. As to the kind of experiment: Random forest prediction of teratogenicity from metabolomics of spent media of dosed hESCs. Conditions: for Predicted teratogenicity (random forest statistical model): blind study, model trained on TS1, 142 mass features, circulating dose. Format: cell-based, human. As to the method: WA09 hESCs, obtained from WiCell Research Institute (NIH National Stem Cell Bank, Madison, Wis.) were cultured in 6-well plates on Matrigel (BD Biosciences, San Jose, Calif.), in mTeSR1 medium (Stem Cell Technologies, Vancouver, BC) incubated at 37° C. under 5% CO2 in a Thermo Electron Form a Series II Water Jacket CO2 Incubator. hESCs were passaged every three or four days at a 1:3 or 1:6 seeding density for routine culture conditions. For dosing experiments, hESCs were passaged at a low density of 1:10 or 1:12 so that they would not require passaging during the […] dosing protocol. To passage hES cells, the StemPro® EZPassage™ disposable stem cell passaging tool (Invitrogen, Carlsbad, Calif.) was used to detach the cells from the wells. Detached cells were removed with a pipette and distributed to new Matrigel plates.
(§1) These medium controls provided baseline mass spectral data.
(§2) The 2.5 mL of spent media per well from Example 1 was added to 1.67 mL acetonitrile to make a 40% acetonitrile solution. The acetonitrile acts to “quench” the spent media sample, slowing or halting many metabolic processes and aiding in precipitation of cellular proteins. Samples were either stored at −80° C. for later analysis, or for immediate analysis, 250 μL of the quenched solution was mixed with 250 μL of water, to a final concentration of 20% acetonitrile, then added to a 3 kDa molecular weight cut-off filter spin column (Microcon YM-3 Centrifugal Filter, Millipore, Billerica, Mass.). Each sample was then centrifuged in an IEC CL31R Multispeed Centrifuge (Thermo Scientific, Waltham, Mass.) at 13,000×g at 4° C. for 200 minutes. Following centrifugation, the flow-through was saved then dried for several hours in a Savant High Capacity Speedvac Plus Concentrator. The concentrated sample was then dissolved in 50 μL of 0.1% formic acid prior to LC-MS analysis.
(§3) 5 μl of each sample was injected.
(§4) Following LC-MS, chromatograms were inspected for reproducibility. LC-MS runs with total ion counts that vary by more than 25% were repeated to ensure that samples could be accurately compared. These runs were then used to create mass features that correspond to molecules detected across the different LC-MS runs. Mass features were extracted from the LC-MS data using MassHunter Qualitative Analysis software (Agilent Technologies). The following criteria were used as general guidelines, however some flexibility and optimization was needed. m/z values within the range of 75-1500, with a charge of +1 or −1, and a centroid height greater than 1000 were used to generate “mass features.” The mass peaks that pass these criteria were used to fit isotope and adduct (Na^+, K^+, and NH4^+) patterns corresponding to individual molecules, and to establish the abundance of each mass feature. The abundance is calculated by MassHunter software as the sum of the isotopic and adduct peaks that correspond to a single molecular feature. After data deconvolution, mass features showing at least two ions (e.g. (M^+H)^+ and (M^+H)^++1 or (M^+H)^+ and (M^+Na)^+) and an abundance value greater than 50000 for positive-ion mode data and 10000 in negative-ion mode data were included in the data set used for binning of the mass features.
Following feature selection by MassHunter, the data was further preprocessed by MassProfiler (Agilent) software which aligns mass features across multiple LC-MS data files. Mass features were generated for data from each drug treatment experiment (dosed and control) using the default alignment settings in MassProfiler with the requirement that a feature be present in at least 80% of the samples in one treatment. The mass feature datasets for each drug treatment experiment were further processed in a global manner using custom analysis scripts executed in the R statistical software environment. […]

The subject of series [3] is hESCs. As to the kind of experiment: Arginine / ADMA fold change ratio (integrated EICs) in dosed hESCs vs controls. Conditions: for Arg fold change/ADMA fold change: EIC areas, controls vs. dosed. As to the method:
All tested chemicals were purchased from Sigma-Aldrich (St. Louis, Mo.). Cells were dosed with drugs at a concentration equivalent to their published serum circulating therapeutic dosages. Dosing was performed on hESCs in 6-well plates in triplicate, i.e. three wells per plate. The plates were dosed in triplicate, so there were a total of nine dosed wells. In parallel, there were nine “control” wells, in which hESCs were cultured with mTeSR1 containing no drug, and three wells containing Matrigel with mTeSR1 medium without hESCs that served as medium controls. Lastly, three wells of dosed medium controls were prepared, containing Matrigel, mTeSR1 and drug, but no hESCs (FIG. 1). These medium controls provided baseline mass spectral data. On the first day of dosage, the determined concentration of drug was dissolved in mTeSR1, and then 2.5 mL of this solution was added to each dosed well of hESCs. Each day, for four days, the medium was removed and new dosed medium was added. On the fourth day, the medium was removed and added to acetonitrile to make a 40% acetonitrile solution, as outlined in the Sample Preparation section below.
Mass spectrometry was performed using an Agilent QTOF LC/MS system consisting of a G6520AA QTOF high resolution mass spectrometer capable of exact mass MS and MS/MS. In order to facilitate separation of small molecules with a wide range of polarity and to allow increased retention of hydrophilic species, Hydrophilic Interaction Liquid Chromatography (Alpert 1990) was employed. Each sample was run for 30 minutes with the gradient shown in Table 3 at a flow rate of 0.5 mL/min, using 0.1% formic acid in water (Solvent A) and 0.1% formic acid in acetonitrile (Solvent B). Electrospray ionization was employed using a dual ESI source, with an Agilent isocratic pump continuously delivering an internal mass reference solution into the source at approx. 0.01 mL/min. The mass range of the instrument was set to 100-1700 Da. A Phenomenex Luna HILIC column with dimensions 3×100 mm 3 μm particle size was used and maintained at 30° C. 5 μl of each sample was injected. Data acquisition was performed with Agilent MassHunter using high-resolution exact mass conditions.
Valproate is known to cause neural tube defects (DiLiberti et al. 1984) while nitric oxide synthase activity is essential for neural tube closure (Nachmany et al. 2006).

Series [4] concerns WA09 hESCs. As to the kind of experiment: LC-MS metabolomics: abundance changes of metabolites in hESCs dosed at circulating dose. Format: cell-based, human. The conditions noted are these: drug-treated vs control. As to the method: as §1, §2, §3, §4
The media represents a major factor in the experimental system, in that it contributes many peaks to mass spectra. This can be accounted for in a data dependent manner to select for mass feature bins, which are present at significant levels above the media. Mass feature bins present solely in the presence of cells (not detected in media) or with average abundance levels different than uncultured media were considered to be secreted, excreted, consumed, or identified metabolites.
The exact mass of the metabolite must be within 10 ppm of the known mass of the compound. 2) The retention time of the metabolite detected in the cell media must be within + or −30 seconds of a reference standard on which MS data had been acquired under the same conditions. The reference standards were dissolved in mTeSR media and prepared in exactly the same manner (described above) as the samples from the cells, including the addition of acetonitrile, Centricon centrifugal filtration, drying then dissolution in formic acid prior to LC-MS analysis. 3) The MS-MS fragmentation spectra of the metabolite detected in the cell media must be a reasonable match with that of the reference standard, including abundances and m/z values of the fragment ions. If published MS-MS spectra are available, the MS-MS spectra must also be a reasonable match.

The subject of series [5] is WA09 human embryonic stem (hES) cells.
Description: as §5
For series [6] the following is noted: blinded drugs; cited from earlier work.
In series [7] the test system is mES cells. The conditions noted are these: Nieden et al. 2001; cited from earlier work.
Setting [8] is: high dose (H = 10x circulating dose).
[9] abbreviates: low dose (L = 0.1x circulating dose).

Take `NC(=O)N1c2ccccc2C=Cc2ccccc21` [Carbamazepine]: in series [1] (setting [8]), the “% Non (PLS-DA class probability non-teratogen)” value (“% Non” for short) was 0.37, the “% Ter (PLS-DA class probability teratogen)” value (from here on “% Ter”) was 0.63, the “Confidence (difference between class probabilities)” value was 0.26 and the Prediction result is given as “Ter”. Also, in series [1] (setting [9]), the “% Non” value was 0.5, the “% Ter” value is reported as 0.5, the “Confidence (difference between class probabilities)” value is given as 0 and the Prediction entry was “Non”. In series [2], the “Predicted teratogenicity (random forest statistical model)” value (from here on “Predicted teratogenicity”) is listed as “Ter”. In series [3], the “Arg/ADMA Prediction” value is on record as “Ter” and the “Arg fold change/ADMA fold change” value stood at 1.12. For the same compound, the “Abundance of succinic acid” value in series [4] is recorded as “significant down regulation”.
For the compound `O=P1(N(CCCl)CCCl)NCCCO1` (stereo not shown) [Cyclophosphamide], in series [1] (setting [8]), the “% Non” value is on record as 0.45, the “% Ter” value is 0.55, the “Confidence (difference between class probabilities)” value is given as 0.1 and the Prediction entry was “Ter”. Also, in series [1] (setting [9]), the “% Non” value is given as 0.41, the “% Ter” value was 0.59, the “Confidence (difference between class probabilities)” value is 0.18 and the Prediction entry is reported as “Ter”. The “Predicted teratogenicity” value in series [2] is “Ter”. Moreover, the “Arg fold change/ADMA fold change” value in series [3] is reported as 1.56. The “Arg/ADMA Prediction” value in series [3] (from fold change ratio) is “Ter”. Besides, in series [4], the “Abundance of succinic acid” value was “significant down regulation”.
As for `Nc1ccn([C@@H]2O[C@H](CO)[C@@H](O)[C@@H]2O)c(=O)n1` [CytosineArabinoside], the Prediction result in series [5] is reported as “Ter”.
In the case of `CN(Cc1cnc2nc(N)nc(N)c2n1)c1ccc(C(=O)N[C@@H](CCC(=O)O)C(=O)O)cc1` [Methotrexate], in series [1] (setting [8]), the “% Non” value is recorded as 0.42, the “% Ter” value is on record as 0.58, the “Confidence (difference between class probabilities)” value is reported as 0.16 and the Prediction entry was “Ter”. In series [1] (setting [9]), the “% Non” value is 0.48, the “% Ter” value was 0.52, the “Confidence (difference between class probabilities)” value is recorded as 0.04 and the Prediction result is listed as “Ter”. In series [3], the “Arg/ADMA Prediction” value is “Ter” and the “Arg fold change/ADMA fold change” value is recorded as 2.54. For the same compound, the “Abundance of succinic acid” value in series [4] was “significant down regulation”.
With `CC1=C(/C=C/C(C)=C/C=C/C(C)=C/CO)C(C)(C)CCC1` [Retinol], the Actual teratogenicity entry in series [6] is given as “Non”. Besides, in series [1] (setting [8]), the “% Non” value is given as 0.65, the “% Ter” value is listed as 0.35, the “Confidence (difference between class probabilities)” value is reported as 0.3 and the Prediction entry is on record as “Non”. In series [1] (setting [9]), the “% Non” value is 0.75, the “% Ter” value was 0.25, the “Confidence (difference between class probabilities)” value was 0.5 and the Prediction entry was “Non”. Further, the “Predicted teratogenicity” value in series [2] is recorded as “Non”. Further, the “Arg fold change/ADMA fold change” value in series [3] stood at 1.03.
With `O=C1CCC(N2C(=O)c3ccccc3C2=O)C(=O)N1` (stereo not shown) [Thalidomide], in series [1] (setting [8]), the “% Non” value was 0.3, the “% Ter” value is reported as 0.7, the “Confidence (difference between class probabilities)” value is listed as 0.4 and the Prediction result is “Ter”. Besides, in series [1] (setting [9]), the “% Non” value is given as 0.65, the “% Ter” value was 0.35, the “Confidence (difference between class probabilities)” value was 0.3 and the Prediction result was “Non”. In addition, the “Classification by the hSLC based assay” value in series [2] is “teratogen”. For the same compound, in series [7], the “Correct classification as a teratogen by the EST” value is “does not”. In addition, in series [3], the “Arg/ADMA Prediction” value was “Ter” and the “Arg fold change/ADMA fold change” value was 0.85.
Regarding `Cc1ncc(C[n+]2csc(CCO)c2C)c(N)n1` [Thiamine], the Actual teratogenicity result in series [6] is reported as “Non”. In addition, in series [1] (setting [8]), the “% Non” value is recorded as 0.78, the “% Ter” value is recorded as 0.22, the “Confidence (difference between class probabilities)” value is reported as 0.56 and the Prediction entry is reported as “Non”. Moreover, in series [1] (setting [9]), the “% Non” value is 0.82, the “% Ter” value is given as 0.18, the “Confidence (difference between class probabilities)” value is given as 0.64 and the Prediction entry was “Non”. Besides, the “Predicted teratogenicity” value in series [2] was “Non”. Further, the “Arg fold change/ADMA fold change” value in series [3] is listed as 1.00.
